Laboratory results taken from patent publication US20130261108A1, “COMPOSITIONS AND METHODS FOR MODULATING FARNESOID X RECEPTORS” (IRM LLC, priority 2010, published 2013).

molecular target: T1, human Farnesoid X Receptor (FXR) ligand binding domain (Homo sapiens, UniProt Q96RI1); assay: Human GST-FXR LBD co-activator interaction assay (FXR HTRF assay); type: biochemical; conditions: GST-FXR LBD with biotin-labeled SRC-1 peptide, FRET/HTRF, 2.5 hours at room temperature; response relative to GW4064; read-out: FXR coactivator interaction assay (HTRF) (EC50)
T1 construct: purchased Invitrogen
T1 sequence (Q96RI1 193-472 isoform Q96RI1-2): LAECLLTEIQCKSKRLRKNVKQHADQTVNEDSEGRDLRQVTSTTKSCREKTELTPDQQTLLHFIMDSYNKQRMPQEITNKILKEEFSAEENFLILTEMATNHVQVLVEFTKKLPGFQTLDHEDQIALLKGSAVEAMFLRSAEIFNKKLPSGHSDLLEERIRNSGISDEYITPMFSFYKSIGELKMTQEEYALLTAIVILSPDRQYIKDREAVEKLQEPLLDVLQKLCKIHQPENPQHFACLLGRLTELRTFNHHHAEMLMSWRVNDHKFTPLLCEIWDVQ
Source text: Human GST-FXR LBD Co-Activator Interaction Assay.
The FXR HTRF assay is a biochemical assay measuring the interaction between FXR and a coactivator protein (SRC1). The ligand-induced interaction with a coactivator protein is a critical step in transcriptional activation by FXR. Thus, this is an assay designed to measure FXR agonist activity of compounds.
The ligand-dependent interaction between GST-FXR LBD and a peptide derived from Steroid Receptor Coactivator-1 (SRC-1) was monitored by Fluorescence Resonance Energy Transfer (FRET). […] Test compounds (in DMSO solution) and detection reagents (anti-GST-Cryptate labeled antibody and Streptavidin-XL665 conjugate; CisBio) were added in assay buffer containing 50 mM KF. Plates are incubated at room temperature in the dark for 2.5 hours before reading on an Envision (PerkinElmer) at 665 nm and 590 nm.
A negative control (without Streptavidin-XL665) was run with each assay and represented the background fluorescence. A reference FXR agonist, GW4064, was included in each experiment as positive control. The efficacy of each test compound was compared to that of GW4064. At each concentration, the relative activity of the test compound was expressed as Response %=(Rsample−RDMSO)/(Rpositive−RDMSO), where Rsample is the HTRF response (expressed in Delta F %) for the test compound, Rpositive is the maximal response for GW4064 at saturating concentrations, and RDMSO is the response for DMSO control. The EC50 values were calculated using GraphPad Prism (GraphPad Software) using non-linear regression curve fit (log(agonist) vs. response−variable slope (four parameters)).

SMILES | EC50 [µM]
O=C(O)c1ccc2nc(N3CCC(OCc4c(C5CCCCC5C(F)(F)F)noc4C4CC4)CC3)sc2c1 (single isomer, unassigned) [5 (Diastereomer A)] | 0.245
O=C(O)c1ccc2nc(N3CCC(OCc4c(C5CCCCC5C(F)(F)F)noc4C4CC4)CC3)sc2c1 (single isomer, unassigned) [5 (Diastereomer B)] | 0.064
CCOC(=O)c1ccc2nc(N3CCC(OCc4c(-c5ccccc5OC(F)(F)F)noc4C4CC4)CC3)sc2c1 [Example 1-1A, Ethyl 2-(4-((5-cyclopropyl-3-(2-(trifluoromethoxy)phenyl)isoxazol-4-yl)methoxy)piperidin-1-yl)benzo[d]thiazole-6-carboxylate] | 0.929
COc1cc(C(=O)O)cc2sc(N3CCC(OCc4c(-c5ccccc5OC(F)(F)F)noc4C4CC4)CC3)nc12 [Example 1-2, 2-(4-((5-cyclopropyl-3-(2-(trifluoromethoxy)phenyl)isoxazol-4-yl)methoxy)piperidin-1-yl)-4-methoxybenzo[d]thiazole-6-carboxylic acid] | 0.012
O=C(O)c1cc(F)c2nc(N3CCC(OCc4c(-c5ccccc5OC(F)(F)F)noc4C4CC4)CC3)sc2c1 [Example 1-3, 2-(4-((5-cyclopropyl-3-(2-(trifluoromethoxy)phenyl)isoxazol-4-yl)methoxy)piperidin-1-yl)-4-fluorobenzo[d]thiazole-6-carboxylic acid] | 0.017
COc1cc(C(=O)O)cc2sc(N3CCC(OCc4c(-c5ccccc5C(F)(F)F)noc4C4CC4)CC3)nc12 [Example 1-4, 2-(4-((5-cyclopropyl-3-(2-(trifluoromethyl)phenyl)isoxazol-4-yl)methoxy)piperidin-1-yl)-4-methoxybenzo[d]thiazole-6-carboxylic acid] | 0.004
O=C(O)c1ccc2sc(N3CCC(OCc4c(-c5ccccc5OC(F)(F)F)noc4C4CC4)CC3)nc2c1 [Example 2-1, 2-[4-({5-cyclopropyl-3-[2-(trifluoromethoxy)phenyl]-1,2-oxazol-4-yl}methoxy)piperidin-1-yl]1,3-benzothiazole-5-carboxylic acid] | 0.062
CCOC(=O)c1ccc2nc(N3CCC(OCc4c(-c5ccccc5OC(F)(F)F)noc4C4(C)CC4)CC3)sc2c1 [Example 2-2A, ethyl 2-(4-{[5-(1-methylcyclopropyl)-3-[2-(trifluoromethoxy)phenyl]-1,2-oxazol-4-yl]methoxy}piperidin-1-yl)-1,3-benzothiazole-6-carboxylate] | 1.18
CC1(c2onc(-c3ccccc3OC(F)(F)F)c2COC2CCN(c3nc4ccc(C(=O)O)cc4s3)CC2)CC1 [Example 2-2B, 2-(4-{[5-(1-methylcyclopropyl)-3-[2-(trifluoromethoxy)phenyl]-1,2-oxazol-4-yl]methoxy}piperidin-1-yl)-1,3-benzothiazole-6-carboxylic acid] | 0.098
Cc1cc(C(=O)O)cc2sc(N3CCC(OCc4c(-c5ccccc5OC(F)(F)F)noc4C4CC4)CC3)nc12 [Example 2-3, 2-[4-({5-cyclopropyl-3-[2-(trifluoromethoxy)phenyl]-1,2-oxazol-4-yl}methoxy)piperidin-1-yl]-4-methyl-1,3-benzothiazole-6-carboxylic acid] | 0.024
O=C(O)c1cc(OC(F)(F)F)c2nc(N3CCC(OCc4c(-c5ccccc5OC(F)(F)F)noc4C4CC4)CC3)sc2c1 [Example 2-4, 2-[4-({5-cyclopropyl-3-[2-(trifluoromethoxy)phenyl]-1,2-oxazol-4-yl}methoxy)piperidin-1-yl]-4-(trifluoromethoxy)-1,3-benzothiazole-6-carboxylic acid] | 0.005
CCOC(=O)c1ccc2nc(N3CCC(OCc4c(-c5ccccc5C(F)(F)F)noc4C4CC4)CC3)sc2c1 [Example 2-5A, ethyl 2-[4-({5-cyclopropyl-3-[2-(trifluoromethyl)phenyl]-1,2-oxazol-4-yl}methoxy)piperidin-1-yl]-1,3-benzothiazole-6-carboxylate] | 0.761
O=C(O)c1ccc2nc(N3CCC(OCc4c(-c5ccccc5C(F)(F)F)noc4C4CC4)CC3)sc2c1 [Example 2-5B, 2-[4-({5-cyclopropyl-3-[2-(trifluoromethyl)phenyl]-1,2-oxazol-4-yl}methoxy)piperidin-1-yl]-1,3-benzothiazole-6-carboxylic acid] | 0.086
CCOC(=O)c1ccc2nc(N3CCC(OCc4c(-c5c(Cl)cccc5C(F)(F)F)noc4C4CC4)CC3)sc2c1 [Example 2-6A, ethyl 2-[4-({3-[2-chloro-6-(trifluoromethyl)phenyl]-5-cyclopropyl-1,2-oxazol-4-yl}methoxy)piperidin-1-yl]-1,3-benzothiazole-6-carboxylate] | 0.396
O=C(O)c1ccc2nc(N3CCC(OCc4c(-c5c(Cl)cccc5C(F)(F)F)noc4C4CC4)CC3)sc2c1 [Example 2-6B, 2-[4-({3-[2-chloro-6-(trifluoromethyl)phenyl]-5-cyclopropyl-1,2-oxazol-4-yl}methoxy)piperidin-1-yl]-1,3-benzothiazole-6-carboxylic acid] | 0.198
CCOC(=O)c1ccc2nc(N3CCC(OCc4c(-c5c(OC)cccc5C(F)(F)F)noc4C4CC4)CC3)sc2c1 [Example 2-7A, ethyl 2-[4-({5-cyclopropyl-3-[2-methoxy-6-(trifluoromethyl)phenyl]-1,2-oxazol-4-yl}methoxy)piperidin-1-yl]-1,3-benzothiazole-6-carboxylate] | 0.736
COc1cccc(C(F)(F)F)c1-c1noc(C2CC2)c1COC1CCN(c2nc3ccc(C(=O)O)cc3s2)CC1 [Example 2-7B, 2-[4-({5-cyclopropyl-3-[2-methoxy-6-(trifluoromethyl)phenyl]-1,2-oxazol-4-yl}methoxy)piperidin-1-yl]-1,3-benzothiazole-6-carboxylic acid] | 0.075
CCOC(=O)c1ccc2nc(N3CCC(OCc4c(-c5ccccc5OC(F)F)noc4C4CC4)CC3)sc2c1 [Example 2-8A, ethyl 2-[4-({5-cyclopropyl-3-[2-(difluoromethoxy)phenyl]-1,2-oxazol-4-yl}methoxy)piperidin-1-yl]-1,3-benzothiazole-6-carboxylate] | 2.42
O=C(O)c1ccc2nc(N3CCC(OCc4c(-c5ccccc5OC(F)F)noc4C4CC4)CC3)sc2c1 [Example 2-8B, 2-[4-({5-cyclopropyl-3-[2-(difluoromethoxy)phenyl]-1,2-oxazol-4-yl}methoxy)piperidin-1-yl]-1,3-benzothiazole-6-carboxylic acid] | 0.045
Cc1cc(C(=O)O)cc2sc(N3CCC(OCc4c(-c5ccccc5OC(F)F)noc4C4CC4)CC3)nc12 [Example 2-9, 2-[4-({5-cyclopropyl-3-[2-(difluoromethoxy)phenyl]-1,2-oxazol-4-yl}methoxy)piperidin-1-yl]-4-methyl-1,3-benzothiazole-6-carboxylic acid] | 0.026
O=C(O)c1cc(F)c2nc(N3CCC(OCc4c(-c5ccccc5OC(F)F)noc4C4CC4)CC3)sc2c1 [Example 2-10, 2-[4-({5-cyclopropyl-3-[2-(difluoromethoxy)phenyl]-1,2-oxazol-4-yl}methoxy)piperidin-1-yl]-4-fluoro-1,3-benzothiazole-6-carboxylic acid] | 0.021
CCOC(=O)c1ccc2nc(N3CCC(OCc4c(-c5c(F)cccc5Cl)noc4C4CC4)CC3)sc2c1 [Example 2-11A, ethyl 2-(4-{[3-(2-chloro-6-fluorophenyl)-5-cyclopropyl-1,2-oxazol-4-yl]methoxy}piperidin-1-yl)-1,3-benzothiazole-6-carboxylate] | 0.557
O=C(O)c1ccc2nc(N3CCC(OCc4c(-c5c(F)cccc5Cl)noc4C4CC4)CC3)sc2c1 [Example 2-12B, 2-(4-{[3-(2-chloro-6-fluorophenyl)-5-cyclopropyl-1,2-oxazol-4-yl]methoxy}piperidin-1-yl)-1,3-benzothiazole-6-carboxylic acid] | 0.057
O=C(O)c1ccc2nc(N3CCC(OCc4c(-c5c(Cl)cccc5Cl)noc4C4CC4)CC3)sc2c1 [Example 2-13, 2-(4-{[5-cyclopropyl-3-(2,6-dichlorophenyl)-1,2-oxazol-4-yl]methoxy}piperidin-1-yl)-1,3-benzothiazole-6-carboxylic acid] | 0.01
O=C(O)c1ccc2nc(N3CCC(OCc4c(-c5c(F)cccc5F)noc4C4CC4)CC3)sc2c1 [Example 2-14, 2-(4-{[5-cyclopropyl-3-(2,6-difluorophenyl)-1,2-oxazol-4-yl]methoxy}piperidin-1-yl)-1,3-benzothiazole-6-carboxylic acid] | 0.031
